Results reported in patent publication US10160948B2, “Pluripotent embryonic-like stem cells, compositions, methods and uses thereof” (ABT HOLDING COMPANY, priority 1999, dated 2018).

System: human mesenchymal stem cells
Assay: Insulin/dexamethasone analysis to identify progenitor and pluripotent cells (morphology)
Format: cell-based
Protocol: Aliquots of CM-SkM, CF-SkM, NHDF, PAL#3, and PAL#2 cells were thawed and plated individually at 10,000 cells per well in 1% gelatin-coated 24-well plates [Corning, Corning, N.Y.] utilizing PM-B. After 24 hr PM-B was removed and replaced with either control medium, insulin testing medium, or dexamethasone testing medium. Control medium consisted of 98% (v/v) Opti-MEM containing 0.01 mM β-mercapto-ethanol, 1% (v/v) HS3, and 1% antibiotic-antimycotic solution. Insulin testing medium consisted of control medium containing 2 μg/ml insulin [Sigma]. Dexmethasone testing medium was composed of 98% Opti-MEM, 0.01 mM β-mercaptoethanol, 1% serum [HS3, HS9 (horse serum, lot number 90H-0701, Sigma) or FBS (fetal bovine serum, lot no. 3000L, Atlanta Biologicals, Norcross, Ga.)] and 1% antibiotic-antimycotic solution. […]
Discernible changes in phenotypic expression of the cells were assayed morphologically. These morphological tissue cellular types were identical to those previously noted in avian and mouse mesenchymal stem cells incubated with insulin or dexamethasone and extensively analyzed by histochemical and immunochemical procedures (Young et al., 1995; Rogers et al., 1995; Young et al., 1993; Young, 1999; Young et al., 1998). […]
Discernible changes in phenotypic expression of the putative mesenchymal stem cells were determined using morphological criteria. […]

Question: insulin was tested. Which “effect on phenotypic expression at 80 cell doublings” value did it give?
Answer: had no effect on the cells
